The text below walks through data of patent US9522928B2, “Mannosylated compounds useful for the prevention and the treatment of infectious diseases” (UNIVERSITE DE STRASBOURG, priority 2011, dated 2016).

For orientation: IC50 means the concentration needed to halve the response being measured. A word on the koff: it is the first-order rate constant of dissociation. Broadly, the kon is the second-order rate constant of association. Usually Kd stands for the concentration at which binding is half-saturated. A lower Kd goes with a tighter complex.

One data set addresses T1, DC-SIGN CRD (Homo sapiens, UniProt Q9NNX6).
T1 construct: human DC-SIGN (Lys62-Ala404, from R§D Systems); purchased R&D Systems ('R§D Systems' [sic])
T1 sequence (Q9NNX6 62-404): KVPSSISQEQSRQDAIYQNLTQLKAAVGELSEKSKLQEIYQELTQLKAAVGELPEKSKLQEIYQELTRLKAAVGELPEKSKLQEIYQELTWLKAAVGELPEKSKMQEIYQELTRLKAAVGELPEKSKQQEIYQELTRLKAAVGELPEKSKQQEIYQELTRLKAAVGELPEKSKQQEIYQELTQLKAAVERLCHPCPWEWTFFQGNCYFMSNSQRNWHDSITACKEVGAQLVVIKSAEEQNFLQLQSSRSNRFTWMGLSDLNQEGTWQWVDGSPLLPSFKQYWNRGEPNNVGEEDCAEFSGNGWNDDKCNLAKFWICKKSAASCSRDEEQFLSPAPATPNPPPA
Nature of the data set: Surface plasmon resonance (SPR) binding to immobilised DC-SIGN CRD. As to the method: SPR experiments were performed using a Biacore 3000. […] Biosensor assays were performed with HEPES-buffered saline (10 mM HEPES, 150 mM sodium chloride, pH 7.4) containing 0.005% surfactant P20 and 5 mM CaCl2 as a running buffer. All binding experiments were carried out at 25° C. with a constant flow rate of 20 μl/min. The different compounds dissolved in the running buffer (0.39 to 50 μM) were injected for 3 min, followed by a dissociation phase of 3 min. The sensor chip surface was regenerated after each experiment by injecting 10 μL of EDTA 0.5 M pH 8.0. A simple channel activated by EDC/NHS and deactivated with ethanolamine was used as control. The kinetic parameters were calculated using the BlAeval 4.1 software. Analysis was performed using the simple Langmuir binding model with separate ka/kd (kon/koff). The specific binding profiles were obtained after subtracting the response signal from the control channel and from blank-buffer injection. The fitting to each model was judged by the chi square value and randomness of residue distribution compared to the theoretical model (Langmuir binding 1:1).
The binding affinity of mannoside derivatives for the carbohydrate recognition domain (CRD) of DC-SIGN was assessed by surface plasmon resonance (SPR).
A CM5 sensor chip was functionalized with the DC-SIGN CRD, and increasing concentrations of the various compounds, mannan as a positive control and octaethyleneglycol (OEG) as a negative control, were injected over the chip surface. The association (kon) and dissociation (koff) rate constants and the resulting dissociation equilibrium constant (Kd=koff/kon) for each assessed compound were determined (see Table 1 hereunder).
For orientation: In SPR one partner is held on a chip, and binding of the other changes the refractive index at the surface.

A short description of data set [1]: Hydrodynamic diameter of micelles (Zetasizer Nano ZS). The note with it: in water at 0.5 mg/ml. It is filed as physicochemical. As to the method:
DiManinsatC24 was prepared according a procedure similar to that used for the preparation of TriDiManC24 except that: • pentacosanoic acid was replaced by 10,12-pentacosadiynoic acid, and • before the coupling with 10,12-pentacosadiynoic acid, the benzyl groups of compound 33 were replaced by acetyl group so as to provide compound 108 (as illustrated in FIG. 3E). ^1H NMR δ(ppm) (MeOD, 400 MHz) 4.87 (s, 3H), 4.73 (s, 3H), 3.64-3.50 (m, 14H), 3.46-3.20 (m, 76H), 2.97-2.93 (m, 6H), 2.33 (t, 6H, J=6.8 Hz), 2.09-1.96 (m, 6H), 1.08-1.05 (m, 32H), 0.66 (t, 3H, J=6.8 Hz). ^13C NMR δ (ppm) (MeOD, 100 MHz) 173.7, 168.8, 104.2, 101.2, 80.6, 80.4, 75.1, 74.7, 72.5, 72.2, 72.1, 71.9, 71.8, 71.7, 71.6, 71.4, 69.4, 69.1, 68.9, 68.7, 68.6, 68.0, 63.2, 63.1, 42.2, 37.0, 34.8, 33.7, 33.1, 30.8, 30.7, 30.6, 30.5, 30.4, 30.2, 29.5, 28.1, 27.0, 26.0, 23.7, 19.7, 14.4. IR (neat film, cm^−1): 3353, 2924, 1716, 1636, 1350, 1182, 1095, 1035, 1009, 837, 669. • Determination of critical micelle concentrations (CMCs) and size of particles. The hydrodynamic diameters of micelles of glycolipids were measured in water using a Zetasizer Nano ZS system (Malvern Instruments). The CMCs were measured using pyrene as an extrinsic fluorescent probe and were carried out as described (Perino et al., 2011). Briefly, a range of glycolipid samples were dissolved in water (1 ml), with concentrations ranging from 1.0 to 0.001 mg/ml. A stock solution of pyrene (1 mM) was prepared in dimethyl sulfoxyde and was added to each sample. Fluorescent emission of pyrene was measured at 25° C. using a Fluorolog spectrofluorometer (Jobin Yvon, Horiba). The intensities of fluorescence emission were determined at 374 nm (I374) and at 383 nm (I383), with an excitation at a 339 nm wavelength. The ratios I374/I383 were calculated and plotted against the glycolipid concentration. The CMC value was determined at the intersection of the two straight lines.

A further data set has as its system HIV-1 R5. Nature of the data set: HIV-1 R5 trans-infection of MAGI-CCR5 cells mediated by DCs. The conditions noted are these: for inhibition of HIV-1 trans-infection (in words): HIV-1 R5 where stated. It is filed as cell-based. As to the method:
ManC1, […] (comparative) and compounds of the invention (ManC24, ManC17, TriManC24, TriDiManC24, TriManinsatC24 and ManinsatC24) were serially diluted in water. Human DCs (1×10^5 in 200 μl ) were pre-treated with different concentrations of compounds, or mannan (Sigma) or culture medium alone, in RPMI 1640 medium containing 10% FBS for 45 min at 37° C., prior infection with HIV-1 (100 ng of p24Gag) for 3 h. Excess free virus and molecules were removed by three washes. DCs were then cocultured with MAGI -CCR5 cells (1×10^5) at 37° C. plated in a 48-well plate. After two days, viral infection of MAGI-CCR5 cells was quantitated following beta-galactosidase assays and enumerating blue cells by light microscopy.
The IC50 were determined by serial dilution of each compound. The trans-infection assays were repeated a minimum of three times, and the IC50 determined using KaleidaGraph.
To investigate the ability of the compounds of the invention to inhibit HIV-1 trans infection, we chose to infect human DCs in order to best mimic in vivo conditions. Human DCs were exposed to different compounds (namely, Mannan (control), ManC1 (comparative), ManC11 (comparative), ManC17, ManC24, TriManC24, TriDiManC24, ManinsatC24 and TriManinsatC24) for 45 min at 37° C., before inoculation with HIV-1 (strains R5 and X4) for 3 hours. After extensive washings to remove unbound virions and mannosides, DCs were then co-cultured with MAGI-CCR5 cells. This procedure allows precise quantification of HIV-1 replication in reporter MAGI-CCR5 cells by detection of beta-galactosidase activity. These cells express an integrated copy of the HIV long terminal repeat (LTR) fused to the beta-galactosidase reporter gene, and express the CD4 receptor and the CCR5 and CXCR4 co-receptors, required for entry of HIV-1 R5 and X4 respectively. Upon viral entry leading to viral Tat expression and activation of the LTR, these cells permit quantification of HIV trans-infection after two days.

Where [2] appears, read: Human immunodeficiency virus 1, MAGI-CCR5, read-out: IC50 of HIV-1 trans-infection.

Entries after “also recorded” stand apart in the source; their conditions may differ. Where two headings read alike, the source gives them in different places.

`CCCCCCCCCCCCCCCCCC(=O)NCCOCCOCCOCC(=O)NCCOCCOCCOCCOC1OC(CO)C(O)C(O)C1O` (centres unmarked) [ManC17]: the “binding to DC-SIGN CRD (in words)” value at DC-SIGN CRD is “bound with a low affinity”. Also, at DC-SIGN CRD (25° C., Langmuir 1:1), the “Kon (M^−1 · s^−1)” value is “Low binding”. Besides, the “hydrodynamic diameter of micelles” value in data set [1] is recorded as 17 nm. Moreover, in the data set with HIV-1 R5, the “inhibition of HIV-1 trans-infection (in words)” value was “reduced trans-infection in a dose -dependent manner; also recorded: able to inhibit trans-infection to a similar extent; also recorded: inhibited in a dose -dependent manner”. In addition, the IC50 with HIV-1 R5 (setting [2]) is 120 µM.
At DC-SIGN CRD (25° C., Langmuir 1:1), `CCCCCCCCCCCCCCCCCCCCCCCCC(=O)NCCOCCOCCOCC(=O)NCCOCCOCCOCCOC1OC(CO)C(O)C(O)C1O` (centres unmarked) [ManC24] yielded a koff of 9e-05 s⁻¹ and an on-rate constant (kon) of 273 M⁻¹ s⁻¹. Further, the “KD (μM)” value on DC-SIGN CRD (Kd=koff/kon) is reported as “sub-micromolar range”. Moreover, in data set [1], the “hydrodynamic diameter of micelles” value was found to be 17 nm. Further, in the data set with HIV-1 R5, the “inhibition of HIV-1 trans-infection (in words)” value is listed as “reduced trans-infection in a dose -dependent manner; also recorded: able to inhibit trans-infection to a similar extent; also recorded: inhibited in a dose -dependent manner”. The 50% inhibitory concentration (IC50) in the data set with HIV-1 R5 (setting [2]) amounted to 120 µM.
On DC-SIGN CRD (25° C., Langmuir 1:1), `CCCCCCCCCCCCC#CC#CCCCCCCCCC(=O)NCCOCCOCCOCC(=O)NCCOCCOCCOCCO[C@H]1O[C@H](CO)[C@@H](O)[C@H](O)[C@@H]1O` [ManinsatC24] showed a koff of 0.00138 s⁻¹ and an on-rate (kon) of 538 M⁻¹ s⁻¹. Binding at DC-SIGN CRD (Kd=koff/kon) was put at a Kd of 2.57 µM. In addition, the “residual level of trans-infection” value in the data set with HIV-1 R5 (HIV-1 R5, highest concentrations, relative to medium alone) is recorded as 15%. In addition, the 50% inhibitory concentration (IC50) in the data set with HIV-1 R5 (Human immunodeficiency virus 1, MAGI-CCR5, HIV-1 R5, read-out: IC50 of HIV-1 trans-infection) worked out at 61 µM.
Take mannan [reference compound]: the “binding to DC-SIGN CRD (in words)” value at DC-SIGN CRD was “bound efficiently”.
